We go through three compounds from ChEMBL document CHEMBL1128617, “4-Deoxy-4-aminoavermectins with potent broad spectrum antiparasitic activities” (1995).

Common to all, as to type: functional
Assay [1] deals with Ovis aries. The assay is described as follows: Antiparasitic activity against Oesophagostomum columbianum at dose of 0.08 mg/kg in sheep anthelmintic test.
The test system of assay [2] is Ovis aries. In words: Antiparasitic activity against Haemonchus contortus at dose of 0.08 mg/kg in sheep anthelmintic test.
Assay [3] deals with Ovis aries. The assay is described as follows: Antiparasitic activity against Trichostrongylus colubriformis at dose of 0.08 mg/kg in sheep anthelmintic test.
Assay [4] deals with Ovis aries. The assay is described as follows: Antiparasitic activity against Ostertagia circumcincta at dose of 0.08 mg/kg in sheep anthelmintic test.
Assay [5] concerns Ovis aries. In words: Antiparasitic activity against Trichostrongylus axei at dose of 0.08 mg/kg in sheep anthelmintic test.
Assay [6] relates to Ovis aries. In words: Antiparasitic activity against Cooperia […] at dose of 0.08 mg/kg in sheep anthelmintic test.
The test system of a further assay is Artemia. The assay is described as follows: In vitro antiparasitic activity in brine shrimp assay.
For assay [7], the system named is Ovis aries. In words: Antiparasitic activity against Cooperia […] at dose of 0.04 mg/kg in sheep anthelmintic test.
For assay [8], the system named is Ovis aries. In words: Antiparasitic activity against Ostertagia circumcincta at dose of 0.04 mg/kg in sheep anthelmintic test.
Assay [9] concerns Ovis aries. In words: Antiparasitic activity against Trichostrongylus colubriformis at dose of 0.04 mg/kg in sheep anthelmintic test.
For assay [10], the system named is Ovis aries. In words: Antiparasitic activity against Trichostrongylus axei at dose of 0.04 mg/kg in sheep anthelmintic test.
Assay [11] has as its system Ovis aries. The assay is described as follows: Antiparasitic activity against Oesophagostomum columbianum at dose of 0.04 mg/kg in sheep anthelmintic test.
Assay [12] deals with Ovis aries. The assay is described as follows: Antiparasitic activity against Haemonchus contortus at dose of 0.04 mg/kg in sheep anthelmintic test.
The test system of assay [13] is Ovis aries. In words: Antiparasitic activity against Trichostrongylus axei at dose of 0.05 mg/kg in sheep anthelmintic test.
In assay [14] the test system is Ovis aries. The assay is described as follows: Antiparasitic activity against Haemonchus contortus at dose of 0.05 mg/kg in sheep anthelmintic test.
The test system of assay [15] is Ovis aries. The assay is described as follows: Antiparasitic activity against Ostertagia circumcincta at dose of 0.05 mg/kg in sheep anthelmintic test.
Assay [16] has as its system Ovis aries. In words: Antiparasitic activity against Oesophagostomum columbianum at dose of 0.05 mg/kg in sheep anthelmintic test.
Assay [17] concerns Ovis aries. The assay is described as follows: Antiparasitic activity against Cooperia […] at dose of 0.05 mg/kg in sheep anthelmintic test.
In assay [18] the test system is Ovis aries. The assay is described as follows: Antiparasitic activity against Trichostrongylus colubriformis at dose of 0.05 mg/kg in sheep anthelmintic test.
Assay [19] concerns Ovis aries. In words: Antiparasitic activity against Cooperia oncophora at dose of 0.05 mg/kg in sheep anthelmintic test.

Regarding `CCC(C)[C@H]1O[C@]2(C=C[C@@H]1C)C[C@@H]1C[C@@H](C/C=C(\C)[C@@H](O[C@H]3C[C@H](OC)[C@@H](O[C@H]4C[C@H](OC)/C(=N\NC(N)=O)[C@H](C)O4)[C@H](C)O3)[C@@H](C)/C=C/C=C3\CO[C@@H]4[C@H](O)C(C)=C[C@@H](C(=O)O1)[C@]34O)O2` (some centres not stated), the Reduction in the assay on Ovis aries [1] is reported as over 95%; in the assay with Ovis aries [2], over 95%; in the assay with Ovis aries [3], over 95%; with Ovis aries [4], over 95%; in the assay on Ovis aries [5], over 95%; in the assay with Ovis aries [6], under 50%. For the same compound, the IC100 in the assay on Artemia was found to be 650 ng/mL.

In the case of `CCC(C)[C@H]1O[C@]2(C=C[C@@H]1C)C[C@@H]1C[C@@H](C/C=C(\C)[C@@H](O[C@H]3C[C@H](OC)[C@@H](O[C@H]4C[C@H](OC)[C@H](N(C)C)[C@H](C)O4)[C@H](C)O3)[C@@H](C)/C=C/C=C3\CO[C@@H]4[C@H](O)C(C)=C[C@@H](C(=O)O1)[C@]34O)O2` (some centres not stated), the Reduction in the assay with Ovis aries [7] is 51%; in the assay with Ovis aries [8] it was over 95%; with Ovis aries [9], 51%; with Ovis aries [10], under 50%; in the assay on Ovis aries [11], over 95%; in the assay on Ovis aries [12], over 95%. The IC100 in the assay on Artemia worked out at 1300 ng/mL.

In the case of `CCC(C)[C@H]1O[C@]2(C=C[C@@H]1C)C[C@@H]1C[C@@H](C/C=C(\C)[C@@H](O[C@H]3C[C@H](OC)[C@@H](O[C@H]4C[C@H](OC)[C@H](NC(C)C)[C@H](C)O4)[C@H](C)O3)[C@@H](C)/C=C/C=C3\CO[C@@H]4[C@H](O)C(C)=C[C@@H](C(=O)O1)[C@]34O)O2` (some centres not stated), the Reduction with Ovis aries [13] is reported as under 50%; in the assay with Ovis aries [14], 76%; with Ovis aries [15], under 50%; in the assay on Ovis aries [16] it was over 95%; in the assay with Ovis aries [17], 51%; in the assay with Ovis aries [18], 51%. The Reduction in the assay on Ovis aries [19] came out at 51%. Further, in the assay on Artemia, the IC100 was found to be 1730 ng/mL.
